In patent publication US20240041827A1, “COMPOSITIONS FOR THE TREATMENT OF FAT RELATED CONDITIONS AND DISORDERS” (priority 2020, published 2024):

System: human visceral preadipocytes
Test: in vitro
Method: Human visceral preadipocytes were seeded in 96-well white clear bottom plates at 10,000 cells per well in 100 μl pre-adipocyte medium and incubated overnight at 37° C. 5% CO2. On the following day, adipogenic differentiation was induced by addition of 100 μl/well differentiation medium and incubation continued for 5 days. Adipogenic differentiation was verified by microscopic evaluation, addition of adipored reagents and fluorescent measurement at Ex485 nm/Em572 nm. […] Staurosporine (1 μM) and 0.2% DMSO were used as controls. Plates were incubated at 37° C. 5% CO2 for 2, 6 and 24 hours. Following incubation, cytotoxicity was measured using Cell Titer Glo 2.0 (Promega).
Test Item RZL-12 (1-300 μM) was prepared on the day of the testing as 150 mM stock solutions in DMSO. The 150 mM represents a 500×stock of the highest desired tested concentration. The 150 mM stock solution was first serially diluted in DMSO to acquire 500×stock solutions for each of the RZL-012 concentrations. The 500×stock solutions were then diluted 1:25 in medium to acquire 20×intermediate stock solutions. Finally, the 20×intermediate stock solutions were further diluted 1:20 in the assay (on the plate) that included seeded cells.
The 600 μM represents a 20× stock of the highest desired tested concentration. […] Finally, the 20×intermediate stock solutions were further diluted 1:20 in the assay plate that included seeded cells.
Human visceral pre-adipocytes (HPrAD-vis): HPrAD-vis cells (Lonza cat #PT-5005) were thawed at 37° C. and transferred into 50 ml tubes containing pre-adipocytes PGM-2 growth medium (PBM-2, 10% FBS, 1-glutamine, GA-1000). Cells were centrifuged at 300 g for 10 minutes, the supernatant was removed (Leaving about 1 ml of wash medium for not disrupting the cells) and 2 ml fresh PGM-2 medium was added. After resuspension, cells were counted and seeded in T-75 and T25 flasks at a density of 9,000 cells/cm^2 ([…], 225,000 cells/T25 flask). Medium was changed every 2-3 days until reached confluence of 70%.
Cells were sub-cultured only once, as soon as they reached 70% confluence. For this purpose, the culture medium of each flask was removed and cells were washed once with 5 ml PBS. The flask was shaken to ensure that the entire surface was covered and the PBS was removed. Then, 3 ml/T75 flask or 1 ml/T25 flask of fresh dedicated Trypsin/EDTA solution (from Lonza) was added and the flasks were incubated for 3-4 minutes at RT until ˜90% cells were detached. The Trypsin/EDTA solution was then neutralized by addition of 6 ml/T75 flask or 3 ml/T25 flask of full PGM-2 growth medium. Cells were collected in 50 ml tubes and centrifuged 10 minutes at 300 g. The supernatant was removed and the cells were resuspended in 3 ml fresh medium. Cells were then counted using a haemacytometer slide after being diluted 1:2 in trypan blue (SIGMA). For sub-culturing, cells were seeded in new T75 flasks at a density of 9,000 cells/cm^2 containing 15 ml fresh growth medium. Alternatively, the cells were seeded in 96-well culture plates at a density of 10,000 cells/well for the cell treatments.
HPrAD-vis cells: HPrAD-vis passaged once were seeded in 96-well plates as described above (10000cells/well in 100 μl medium) and allowed to settle overnight at 37° C., 5% CO2. Following day, adipogenic differentiation was induced by addition of 100 μl/well differentiation medium and incubated for 5 days. Adipogenic differentiation was verified by microscopic evaluation, addition of adipored reagents and fluorescent measurement at Ex485 nm/Em572 nm. In the morning of day 6, test and reference items were prepared as described above. Cells' medium was replaced with 90 μl fresh differentiation medium. […] Staurosporine (1 μM) and 0.2% DMSO were used as controls. Plates were incubated at 37° C. 5% CO2 for 2, 6 and 24 hours. Following incubation, cell viability was determined using the CellTiter-Gg® viability reagent (Promega) with reading of plates for luminescence. […]

## C[N+](C)(C)CCCCCn1c2ccc(Br)cc2c2cc(Br)ccc21.[Cl-] [RZL-012, 5-(3,6-dibromo-9H-carbazol-9-yl)-N,N,N-trimethylpentan-1-aminium chloride]
RZL12 10 μM, Collagenase 0, 2 h of incubation
  Average RZL-012 and collagenase induced cell death (% vs untreated cells): 10.4%
RZL12 10 μM, Collagenase 0, 24 h of incubation
  Average RZL-012 and collagenase induced cell death (% vs untreated cells): 12.80%
RZL12 10 μM, Collagenase 0.1 μM, 2 h of incubation
  Average RZL-012 and collagenase induced cell death (% vs untreated cells): 4.9%
RZL12 10 μM, Collagenase 0.1 μM, 24 h of incubation
  Average RZL-012 and collagenase induced cell death (% vs untreated cells): 9.43%
RZL12 10 μM, Collagenase 0.3 μM, 2 h of incubation
  Average RZL-012 and collagenase induced cell death (% vs untreated cells): 5.0%
RZL12 10 μM, Collagenase 0.3 μM, 24 h of incubation
  Average RZL-012 and collagenase induced cell death (% vs untreated cells): 5.50%
RZL12 10 μM, Collagenase 1 μM, 2 h of incubation
  Average RZL-012 and collagenase induced cell death (% vs untreated cells): 7.8%
RZL12 10 μM, Collagenase 1 μM, 24 h of incubation
  Average RZL-012 and collagenase induced cell death (% vs untreated cells): 16.08%
RZL12 10 μM, Collagenase 3 μM, 2 h of incubation
  Average RZL-012 and collagenase induced cell death (% vs untreated cells): 17.7%
RZL12 10 μM, Collagenase 3 μM, 24 h of incubation
  Average RZL-012 and collagenase induced cell death (% vs untreated cells): 33.99%
RZL12 10 μM, Collagenase 10 μM, 2 h of incubation
  Average RZL-012 and collagenase induced cell death (% vs untreated cells): 22.3%
RZL12 10 μM, Collagenase 10 μM, 24 h of incubation
  Average RZL-012 and collagenase induced cell death (% vs untreated cells): 65.12%
RZL12 10 μM, Collagenase 30 μM, 2 h of incubation
  Average RZL-012 and collagenase induced cell death (% vs untreated cells): 45.0%
RZL12 10 μM, Collagenase 30 μM, 24 h of incubation
  Average RZL-012 and collagenase induced cell death (% vs untreated cells): 80.04%
RZL12 30 μM, Collagenase 0, 2 h of incubation
  Average RZL-012 and collagenase induced cell death (% vs untreated cells): 50.4%
RZL12 30 μM, Collagenase 0, 24 h of incubation
  Average RZL-012 and collagenase induced cell death (% vs untreated cells): 72.72%
RZL12 30 μM, Collagenase 0.1 μM, 2 h of incubation
  Average RZL-012 and collagenase induced cell death (% vs untreated cells): 43.8%
RZL12 30 μM, Collagenase 0.1 μM, 24 h of incubation
  Average RZL-012 and collagenase induced cell death (% vs untreated cells): 28.35%
RZL12 30 μM, Collagenase 0.3 μM, 2 h of incubation
  Average RZL-012 and collagenase induced cell death (% vs untreated cells): 35.0%
RZL12 30 μM, Collagenase 0.3 μM, 24 h of incubation
  Average RZL-012 and collagenase induced cell death (% vs untreated cells): 23.76%
RZL12 30 μM, Collagenase 1 μM, 2 h of incubation
  Average RZL-012 and collagenase induced cell death (% vs untreated cells): 45.8%
RZL12 30 μM, Collagenase 1 μM, 24 h of incubation
  Average RZL-012 and collagenase induced cell death (% vs untreated cells): 31.37%
RZL12 30 μM, Collagenase 3 μM, 2 h of incubation
  Average RZL-012 and collagenase induced cell death (% vs untreated cells): 49.7%
RZL12 30 μM, Collagenase 3 μM, 24 h of incubation
  Average RZL-012 and collagenase induced cell death (% vs untreated cells): 79.97%
RZL12 30 μM, Collagenase 10 μM, 2 h of incubation
  Average RZL-012 and collagenase induced cell death (% vs untreated cells): 33.2%
RZL12 30 μM, Collagenase 10 μM, 24 h of incubation
  Average RZL-012 and collagenase induced cell death (% vs untreated cells): 83.68%
RZL12 30 μM, Collagenase 30 μM, 2 h of incubation
  Average RZL-012 and collagenase induced cell death (% vs untreated cells): 46.0%
RZL12 30 μM, Collagenase 30 μM, 24 h of incubation
  Average RZL-012 and collagenase induced cell death (% vs untreated cells): 90.00%
RZL12 100 μM, Collagenase 0, 2 h of incubation
  Average RZL-012 and collagenase induced cell death (% vs untreated cells): 99.7%
RZL12 100 μM, Collagenase 0, 24 h of incubation
  Average RZL-012 and collagenase induced cell death (% vs untreated cells): 99.89%
RZL12 100 μM, Collagenase 0.1 μM, 2 h of incubation
  Average RZL-012 and collagenase induced cell death (% vs untreated cells): 99.5%
RZL12 100 μM, Collagenase 0.1 μM, 24 h of incubation
  Average RZL-012 and collagenase induced cell death (% vs untreated cells): 99.66%
RZL12 100 μM, Collagenase 0.3 μM, 2 h of incubation
  Average RZL-012 and collagenase induced cell death (% vs untreated cells): 99.3%
RZL12 100 μM, Collagenase 0.3 μM, 24 h of incubation
  Average RZL-012 and collagenase induced cell death (% vs untreated cells): 99.60%
RZL12 100 μM, Collagenase 1 μM, 2 h of incubation
  Average RZL-012 and collagenase induced cell death (% vs untreated cells): 98.9%
RZL12 100 μM, Collagenase 1 μM, 24 h of incubation
  Average RZL-012 and collagenase induced cell death (% vs untreated cells): 99.65%
RZL12 100 μM, Collagenase 3 μM, 2 h of incubation
  Average RZL-012 and collagenase induced cell death (% vs untreated cells): 97.4%
RZL12 100 μM, Collagenase 3 μM, 24 h of incubation
  Average RZL-012 and collagenase induced cell death (% vs untreated cells): 99.89%
RZL12 100 μM, Collagenase 10 μM, 2 h of incubation
  Average RZL-012 and collagenase induced cell death (% vs untreated cells): 72.4%
RZL12 100 μM, Collagenase 10 μM, 24 h of incubation
  Average RZL-012 and collagenase induced cell death (% vs untreated cells): 99.92%
RZL12 100 μM, Collagenase 30 μM, 2 h of incubation
  Average RZL-012 and collagenase induced cell death (% vs untreated cells): 76.4%
RZL12 100 μM, Collagenase 30 μM, 24 h of incubation
  Average RZL-012 and collagenase induced cell death (% vs untreated cells): 99.99%
RZL12 300 μM, Collagenase 0, 2 h of incubation
  Average RZL-012 and collagenase induced cell death (% vs untreated cells): 99.9%
RZL12 300 μM, Collagenase 0, 24 h of incubation
  Average RZL-012 and collagenase induced cell death (% vs untreated cells): 100.00%
RZL12 300 μM, Collagenase 0.1 μM, 2 h of incubation
  Average RZL-012 and collagenase induced cell death (% vs untreated cells): 99.6%
RZL12 300 μM, Collagenase 0.1 μM, 24 h of incubation
  Average RZL-012 and collagenase induced cell death (% vs untreated cells): 99.67%
RZL12 300 μM, Collagenase 0.3 μM, 2 h of incubation
  Average RZL-012 and collagenase induced cell death (% vs untreated cells): 99.6%
RZL12 300 μM, Collagenase 0.3 μM, 24 h of incubation
  Average RZL-012 and collagenase induced cell death (% vs untreated cells): 99.74%
RZL12 300 μM, Collagenase 1 μM, 2 h of incubation
  Average RZL-012 and collagenase induced cell death (% vs untreated cells): 99.1%
RZL12 300 μM, Collagenase 1 μM, 24 h of incubation
  Average RZL-012 and collagenase induced cell death (% vs untreated cells): 99.96%
RZL12 300 μM, Collagenase 3 μM, 2 h of incubation
  Average RZL-012 and collagenase induced cell death (% vs untreated cells): 96.6%
RZL12 300 μM, Collagenase 3 μM, 24 h of incubation
  Average RZL-012 and collagenase induced cell death (% vs untreated cells): 99.76%
RZL12 300 μM, Collagenase 10 μM, 2 h of incubation
  Average RZL-012 and collagenase induced cell death (% vs untreated cells): 89.2%
RZL12 300 μM, Collagenase 10 μM, 24 h of incubation
  Average RZL-012 and collagenase induced cell death (% vs untreated cells): 99.82%
RZL12 300 μM, Collagenase 30 μM, 2 h of incubation
  Average RZL-012 and collagenase induced cell death (% vs untreated cells): 89.5%
RZL12 300 μM, Collagenase 30 μM, 24 h of incubation
  Average RZL-012 and collagenase induced cell death (% vs untreated cells): 100.01%
At all time points (2, 6, 24 h)
  concentrations at which the cytotoxic effect was observed: > 30 µM
